Laboratory results taken from patent US4122184A, “Benzimidazole insecticides” (priority 1977, dated 1978).
Read-outs that look alike come from different tables or passages of the source.

Key:
Eastern Tent Caterpillar [1] = test: Field trial, topical application; assay type: in vivo
Outline: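 1 μL benzimidazole solution of set microgram content applied topically to larvae or adults. Mortality read at 24, 48 and 72 h where applicable, rated 0-9 (0 = 0-10%, 9 = 91-100%); values are average mortality per concentration.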

Asparagus Beetles Larvae = test: Field trial, contact poison test; assay type: in vivo
Outline: (§1)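 Mortality after direct spraying was scored at 24, 48 and 72 hours where applicable, using a 0–9 rating tied to 10% bands. Plants bearing insects received atomized compound at 10 psi over a range of concentrations.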

Fall Webworm = test: Field trial, contact poison test; assay type: in vivo
Outline: as §1

Imported Cabbage Worm = test: Field trial, contact poison test; assay type: in vivo
Outline: as §1

Acute oral toxicity = details: in vivo, read-out: Est. LD50
Description: While the compounds of this invention resemble the organic phosphates in being toxic upon ingestion, they differ from the organic phosphates in having a low toxicity when applied to the skin. The following charts give the estimated acute oral and acute dermal toxicities of 2,6-bis(trifluoromethyl)-4-nitrobenzimidazole in several species of mammals.

Mexican Bean Beetle = test: Field trial (first summer), topical; assay type: in vivo, Epilachna varivestis
Protocol: In a variation of the above test, 1 microliter of a test solution containing a predetermined number of micrograms of benzimidazole was applied directly to larvae or adult insects.
(§2) During the previous summer similar field trials were conducted employing the same tests as heretofore but with some additional species of insects not included in the later tests. The results listed below are for tests in which an insect mortality was established by a given application route and at a given concentration in a particular test. The same 0 - 9 scoring system is used as is the designation of compounds by alphabetical symbols.

Meadow Grasshopper = test: Field trial (first summer), contact; assay type: in vivo; details: 125 ppm
Description: (§3) Infested plants are placed in 6 oz. prescription bottles filled with water to keep them from wilting. Cellucotton is wrapped around the plant stem and squeezed into the bottle neck to prevent the insects from drowning.
(§4) A DeVilbiss Special Atomizer (5004) is used at 10 psi to spray the test plant with different concentrations of compounds. The atomizer is held at arm's length to prevent blowing the insects off the host plant. After treating, the bottles are placed on a table covered with brown wrapping paper to catch the dead insects as they drop from the plant. The plants are spaced so the leaves or plants are not touching one another.
(§5) The results are read at 24, 48, and 72 hours when applicable. The rating scale is 0 to 9 where 0 = 0-10 percent and 9 = 91-100 percent mortality.
as §2

Differential Grasshopper = test: Field trial (first summer), contact; assay type: in vivo
Description: as §3, §4, §5, §2

Bagworms [2] = test: Field trial, contact poison test; assay type: in vivo; design: key: 0-9 scale: 0 = 0-10% mortality, 9 = 91-100% mortality
Description: as §3, §4, §5
Using the above methods, field trials were carried out against species of 5 orders of insects. The results, which are summarized in the following tables, give the average mortality for the particular insect with a given benzimidazole for each concentration employed. […] These tables contain all results obtained during the summer trials.

Elm Leaf Beetle = test: Field trial, stomach poison test; assay type: in vivo
Outline: (§6)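 Leaves from infested plants sprayed (10 psi) or dipped in test compound at several concentrations, air-dried, then five or ten insects placed per dish, one or two replicates. Mortality scored 0 to 9 at 24, 48 and 72 h, averaged per concentration.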

Bagworms [3] = test: Field trial, stomach poison test; assay type: in vivo
Outline: as §6

Eastern Tent Caterpillar [4] = test: Field trial, stomach poison test; assay type: in vivo
Outline: as §6

[5] = tested on: Red-Legged Grasshopper Adults; test: Field trial, stomach poison test; assay type: in vivo
Outline: as §6

Armyworm, P. Unipuncta = test: Field trial, stomach poison test; assay type: in vivo
Outline: as §6

Walnut Caterpillar = test: Field trial, stomach poison test; assay type: in vivo
Outline: as §6

Citrus Rust Mite (CRM) = test: Miticide test, acute mortality, foliar spray; assay type: in vivo
Protocol: Citrus cuttings were obtained and prepared for testing within 24 hours prior to inoculation with citrus rust mites. To prepare the cuttings, terminals of branches 12 to 14 inches in length were cut from temple orange trees, immediately placed in tap water and taken into the laboratory. Uniform hardwood cuttings, 3 to 4 inches in length, were cut from the branches, all but one hardened leaf was removed from the cuttings, and the remaining leaf was wiped clean with a cotton pad soaked in 10% ethanol solution. Each cutting was immediately placed in tap water in a test tube with the closed leaf extending out of the test tube. Then, a ring of melted lanolin was applied around the petiole to prevent migration of mites from the leaf. One cutting was used for each replicate.
When the leaves were dry immediately after cleaning, citrus rust mites were transferred to the test leaves by cutting a heavily infested colony leaf (from a source colony maintained on citrus seedlings) into 20 to 22 sections (approximately 0.25 by 0.5 inches in size) and using forceps to place 1 section on each leaf cutting. As the section became desiccated the mites moved to the whole leaf and in 20 hours the sections were removed from the leaves for treatment application.
Treatments were applied within 24 hours after inoculation by removing the cuttings from the test tube and submerging the leaves in the treatment solution for 5 seconds by hand and immediately returning the cutting to the test tube. […]
The treated cuttings were stored in the greenhouse for 24 hours before evaluation under a binocular disecting microscope in the laboratory. In evaluating the results of the miticide test, each treated cutting was removed from the test tube, observed for live and dead mites at 14 × magnification, and returned immediately to the test tube. A scale of 0-9 was used as before.

`O=[N+]([O-])c1cc(C(F)(F)F)cc2nc(C(F)(F)F)[nH]c12` [A, 2,6-bis(trifluoromethyl)-4-nitrobenzimidazole] showed an average mortality rating (Eastern Tent Caterpillar [1]; 0.3 μg/μl) of 3, an average mortality rating (Eastern Tent Caterpillar [1]; 0.6 μg/μl) of 1 and an average mortality rating (Eastern Tent Caterpillar [1]; 1.2 μg/μl) of 3. For the same compound, the average mortality rating (Asparagus Beetles Larvae; 10 ppm) was 8, the average mortality rating (Asparagus Beetles Larvae; 25 ppm) was 8 and the average mortality rating (Asparagus Beetles Larvae; 50 ppm) was 9 (91-100 percent mortality). It also gave an average mortality rating (Fall Webworm; 125 ppm) of 3, an average mortality rating (Fall Webworm; 250 ppm) of 5 and an average mortality rating (Fall Webworm; 500 ppm) of 3. For the same compound, the average mortality rating (Fall Webworm; 750 ppm) was 9 (91-100 percent mortality), the average mortality rating (Imported Cabbage Worm; 125 ppm) was 3 and the average mortality rating (Imported Cabbage Worm; 250 ppm) was 4. The average mortality rating (Imported Cabbage Worm; 500 ppm) was 3, the average mortality rating (Imported Cabbage Worm; 750 ppm) was 7 and the LD50 (Acute oral toxicity; guinea pig, male) was 15 mg/kg. It also gave an LD50 (Acute oral toxicity; mouse, female) of 27 mg/kg, an LD50 (Acute oral toxicity; rat, female) of 19 to 22 mg/kg and an LD50 (Acute oral toxicity; rat, male) of 16 to 20 mg/kg. For the same compound, the insect mortality rating (Mexican Bean Beetle; .25 μg/μl) was 9 (91-100 percent mortality), the insect mortality rating (Meadow Grasshopper) was 9 (91-100 percent mortality) and the insect mortality rating (Differential Grasshopper; 125 ppm) was 9 (91-100 percent mortality). The average mortality rating (Bagworms [2]; 125 ppm) was 0 (0-10 percent), the average mortality rating (Bagworms [2]; 250 ppm) was 4 and the average mortality rating (Bagworms [2]; 500 ppm) was 4. The average mortality rating (Bagworms [2]; 750 ppm) was 1, the average mortality rating (Bagworms [2]; 1000 ppm) was 0 (0-10 percent) and the average mortality rating (Bagworms [2]; 1500 ppm) was 0 (0-10 percent). For the same compound, the average mortality rating (Elm Leaf Beetle; 125 ppm) was 3, the average mortality rating (Elm Leaf Beetle; 250 ppm) was 0 (0-10 percent) and the average mortality rating (Elm Leaf Beetle; 500 ppm) was 5. The average mortality rating (Bagworms [3]; 500 ppm) was 1, the average mortality rating (Bagworms [3]; 750 ppm) was 0 (0-10 percent) and the average mortality rating (Bagworms [3]; 1000 ppm) was 0 (0-10 percent). The average mortality rating (Bagworms [3]; 1500 ppm) was 1, the average mortality rating (Bagworms [3]; 2500 ppm) was 0 (0-10 percent) and the average mortality rating (Bagworms [3]; 5000 ppm) was 1. The average mortality rating (Eastern Tent Caterpillar [4]; 250 ppm) was 0 (0-10 percent), the average mortality rating (Eastern Tent Caterpillar [4]; 500 ppm) was 0 (0-10 percent) and the average mortality rating (Eastern Tent Caterpillar [4]; 1000 ppm) was 0 (0-10 percent). The average mortality rating ([5]; 10 ppm) was 0 (0-10 percent), the average mortality rating ([5]; 25 ppm) was 4 and the average mortality rating ([5]; 50 ppm) was 6. The average mortality rating (Armyworm, P. Unipuncta; 125 ppm) was 9 (91-100 percent mortality), the average mortality rating (Armyworm, P. Unipuncta; 250 ppm) was 9 (91-100 percent mortality) and the average mortality rating (Armyworm, P. Unipuncta; 500 ppm) was 9 (91-100 percent mortality). The average mortality rating (Walnut Caterpillar; 50 ppm) was 1, the average mortality rating (Walnut Caterpillar; 100 ppm) was 3 and the average mortality rating (Walnut Caterpillar; 250 ppm) was 3.
In the case of `CCCCCCOC(=O)n1c(C(F)(F)F)nc2c([N+](=O)[O-])cc(C(F)(F)F)cc21` [E, n-hexyl 2,6-bis(trifluoromethyl)-4-nitro-1-benzimidazolecarboxylate], the insect mortality rating (Mexican Bean Beetle; .0625 μg/μl) is reported as 9 (91-100 percent mortality), the acute mortality rating (Citrus Rust Mite (CRM); 6.25 ppm, after 48 hours) is reported as 4 and the acute mortality rating (Citrus Rust Mite (CRM); 12.5 ppm, after 48 hours) is reported as 8. The acute mortality rating (Citrus Rust Mite (CRM); 25 ppm, after 48 hours) was 9 (91-100 percent mortality), the acute mortality rating (Citrus Rust Mite (CRM); 50 ppm, after 48 hours) was 9 (91-100 percent mortality) and the acute mortality rating (Citrus Rust Mite (CRM); 100 ppm, after 48 hours) was 9 (91-100 percent mortality). For the same compound, the insect mortality rating (Meadow Grasshopper) was 9 (91-100 percent mortality) and the insect mortality rating (Differential Grasshopper; 250 ppm) was 9 (91-100 percent mortality).
In the case of `CC(C)OC(=O)n1c(C(F)(F)F)nc2c([N+](=O)[O-])cc(C(F)(F)F)cc21` [I, isopropyl 2,6-bis(trifluoromethyl)-4-nitro-1-benzimidazolecarboxylate], the average mortality rating (Eastern Tent Caterpillar [1]; 0.3 μg/μl) is reported as 0 (0-10 percent), the average mortality rating (Eastern Tent Caterpillar [1]; 0.6 μg/μl) is reported as 1 and the average mortality rating (Eastern Tent Caterpillar [1]; 1.2 μg/μl) is reported as 2. The acute mortality rating (Citrus Rust Mite (CRM); 6.25 ppm, after 24 hours) was 5, the acute mortality rating (Citrus Rust Mite (CRM); 12.5 ppm, after 24 hours) was 7 and the acute mortality rating (Citrus Rust Mite (CRM); 25 ppm, after 24 hours) was 9 (91-100 percent mortality). For the same compound, the acute mortality rating (Citrus Rust Mite (CRM); 50 ppm, after 24 hours) was 9 (91-100 percent mortality), the acute mortality rating (Citrus Rust Mite (CRM); 100 ppm, after 24 hours) was 9 (91-100 percent mortality) and the average mortality rating (Bagworms [2]; 125 ppm) was 1. For the same compound, the average mortality rating (Bagworms [2]; 250 ppm) was 4, the average mortality rating (Bagworms [2]; 500 ppm) was 5 and the average mortality rating (Bagworms [2]; 750 ppm) was 2. The average mortality rating (Bagworms [2]; 1000 ppm) was 1, the average mortality rating (Bagworms [2]; 1500 ppm) was 0 (0-10 percent) and the average mortality rating (Elm Leaf Beetle; 125 ppm) was 0 (0-10 percent). For the same compound, the average mortality rating (Elm Leaf Beetle; 250 ppm) was 0 (0-10 percent), the average mortality rating (Elm Leaf Beetle; 500 ppm) was 3 and the average mortality rating (Bagworms [3]; 500 ppm) was 1. For the same compound, the average mortality rating (Bagworms [3]; 750 ppm) was 0 (0-10 percent), the average mortality rating (Bagworms [3]; 1000 ppm) was 1 and the average mortality rating (Bagworms [3]; 1500 ppm) was 0 (0-10 percent). The average mortality rating (Bagworms [3]; 2500 ppm) was 1, the average mortality rating (Bagworms [3]; 5000 ppm) was 1 and the average mortality rating (Eastern Tent Caterpillar [4]; 250 ppm) was 0 (0-10 percent). The average mortality rating (Eastern Tent Caterpillar [4]; 500 ppm) was 0 (0-10 percent), the average mortality rating (Eastern Tent Caterpillar [4]; 1000 ppm) was 0 (0-10 percent) and the average mortality rating ([5]; 10 ppm) was 0 (0-10 percent). The average mortality rating ([5]; 25 ppm) was 4, the average mortality rating ([5]; 50 ppm) was 4 and the average mortality rating (Armyworm, P. Unipuncta; 125 ppm) was 2. For the same compound, the average mortality rating (Armyworm, P. Unipuncta; 250 ppm) was 4, the average mortality rating (Armyworm, P. Unipuncta; 500 ppm) was 2 and the average mortality rating (Walnut Caterpillar; 50 ppm) was 0 (0-10 percent). It also gave an average mortality rating (Walnut Caterpillar; 100 ppm) of 1 and an average mortality rating (Walnut Caterpillar; 250 ppm) of 2.
